“Also recorded” adds a separate entry of the source.
Tests used:
lung = assay: orthotopic rat left lung transplantation, cGMP series (hemodynamics, oxygenation, recipient survival); assay type: in vivo, rat (male Lewis); details: 6 h in EC
Description: Orthotopic rat left lung transplantation was accomplished using inbred male Lewis rats (250-300 gms), using a modification of a previously described technique^29. The donor rat was anesthetized and heparinized (500 U intravenously), and endotracheal intubation was performed by inserting a 16 gauge angiocatheter into the trachea using blunt cervical dissection, after which the rat was ventilated with room air at a constant rate (100 breaths/minute) and tidal volume (2.5 ml), using a Harvard rodent ventilator. […] The pulmonary artery (PA) and pulmonary vein (PV) were divided, the bronchus ligated with the lung partially inflated and then divided, and the lung removed. The vascular stumps were each pulled through a small plastic cylinder, and a lip of vessel was turned back around the edge and secured in place with a suture to form a "cuff." A small plastic cylinder was inserted into the bronchial stump and secured, and the lung was then wrapped in gauze and submerged in cold preservation solution for the desired interval.
The recipient rat (gender/size/strain-matched) was similarly anesthetized and intubated (ventilated with 100% oxygen), but not heparinized. A left thoracotomy was performed, the hilum was dissected, and the left bronchus, PA, and PV were isolated, cross-clamped, divided and the native lung was removed from the field. The PA and PV stumps were rinsed with heparinized saline to remove any clot. The donor lung was brought onto the surgical field, and the cylinder (bronchus) and cuffs (PA and PV) were connected rapidly to their respective structures with a simple staying suture. This cuff technique permitted rapid approximation of donor and recipient tissues with no contact of a foreign substance with the luminal vascular surface. The hilar cross-clamp was released, re-establishing blood flow, and the bronchus tie was removed, enabling gas exchange. A snare was then passed around the right PA, and a Millar catheter (2F; Millar Instruments,Houston, Tex.) was introduced through a small hole (surrounded by a pursestring) into the main PA; similarly, a Millar catheter was introduced into the left atrium (LA). A flow probe (Transonics, Ithaca, N.Y.) was then placed around the main PA. Arterial blood gas sampling performed via the left femoral artery.
Online hemodynamic monitoring was accomplished using MacLab and a Macintosh IIci computer. The hemodynamic parameters that were measured included PA pressure (mm Hg), blood flow (ml/min), LA pressure (mm Hg), as well as arterial oxygen tension (mm Hg) during inspiration of 100% oxygen; pO2 was analyzed with a model ABL-2 dissolved gas analyzer (Radiometer, Copenhagen, Denmark). Pulmonary vascular resistances (PVRs) were calculated as [mean PA pressure-LA pressure]/PA flow. The native lung supported the recipient during the period of warm ischemia (the period during which the donor lung was removed from cold preservation until the time of reperfusion, <10 min. in all instances), but immediately following rapid hemodynamic instrumentation and acquisition of baseline measurements, the native (right) PA was then ligated, and serial measurements (representative solely of the transplanted lung) were taken every five minutes for 30 minutes. Because the native lung was effectively removed from the circulation by ligation of the right PA, these measurements represent function of the transplanted lung. Recipient death was identified by the cessation of cardiac mechanical activity observed through the thoracotomy.
Preservation solutions were freshly made and coded by a technician not otherwise involved in the experiments, according to a general plan which included both control and experimental groups. […]

[1] = target: cGMP-dependent protein kinase; details: cited from earlier work
[2] = target: cAMP-dependent protein kinase; details: cited from earlier work
HUVECs / platelets = assay: NO by inhibition of thrombin-induced platelet aggregation and serotonin release by ECs; assay type: cell-based, human; details: normoxic ECs (hemoglobin); hypoxia 16 h + reoxygenated ECs (SOD, BHT)
Description: Radiolabelled serotonin (^14 C-5-hydroxytryptamine, Amersham, Arlington Heights, Ill.) was incorporated into the platelets by adding 0.5 μCi during the blood collection process. Inhibition of cyclooxygenase was confirmed by the absence of aggregation to 1 mM sodium arachidonate.
HUVECs from fresh human umbilical veins were isolated and grown according to previously published methods^12, and used between the 3rd and 4th passages. HUVEC cyclooxygenase was inhibited with acetylsalicylic acid (1 mmol/L in M199 medium, incubated for 30 minutes at 37° C., and then washed twice with M199 to remove residual acetylsalicylic acid) immediately prior to collagenase digestion. […] An hypoxic environment was administered by placing cells in a specially designed airtight chamber (Coy Laboratory Products, Ann Arbor, Mich.) with a normobaric environment comprised of 90% N2, 5% H2, 5% CO2, and 0% O2. pO2 s of 15 Torr in the culture medium were achieved by the use of a palladium catalyst in the chamber to reduce any residual O2. All manipulations, including centrifugation and washing of cells (up to the final aggregometry, or reoxygenation phases as described), were performed within the hypoxia chamber. Reoxygenation was accomplished by removing an aliquot of washed and counted HUVECs in suspension to room air for the indicated duration.
Platelets were challenged with graded doses of α-thrombin (Sigma) to determine the concentration that caused maximal platelet aggregation (0.3 u/mL in all cases), and this dose was used for all further studies. […] Interference with light absorption was measured for 3 minutes to obtain platelet aggregation curves, after which the cuvette contents were placed on ice, centrifuged at 5,000 rpm for 5 minutes at 4° C., and 200 μL of supernatant was recovered and counted in a liquid scintillation counter to quantify ^14 C-serotonin release. […] Results are expressed as both aggregometry curves and as % maximal serotonin release as defined by thrombin challenge in the absence of ECs.

heart [3] = assay: heterotopic rat heart transplant model, First Series Experiment One (heart survival rate, heart transplant index); assay type: in vivo, rat (male Sprague-Dawley); details: in place of db cAMP, 24 hr
heart [4] = assay: heterotopic rat cardiac transplant, cAMP series, graft survival/score; assay type: in vivo, rat (male Sprague-Dawley); details: 12 h in LR
Text: Preservation solutions included lactated Ringer's (LR) solution Baxter, Edison, N.J.), or LR supplemented with rolipram ZK 62 711, Schering AG, Berlin, Germany), indolidan LY195115, Lilly Research Laboratories, Indianapolis, Ind.), sodium butyrate, 8-bromoadenosine, 8-bromoadenosine 3',5'monophosphate (8-Br-cAMP; Sigma Chemical Co., St. Louis, Mo.), the Rp -isomer of adenosine 3',5'monophosphorothioate (Rp -cAMPS; Biolog, La Jolla, Calif.), the Sp isomer of adenosine 3',5'monophosphorothioate (Sp -cAMPS; Biolog), and N^6,O^2' -dibutyryl adenosine 3',5'monophosphate sodium (db-cAMP; Aldrich, Milwaukee, Wis.). Components were combined within 4 hrs of donor cardiectomy, and preservation solutions were kept at 4° C. University of Wisconsin solution (UW)(2-4 was purchased from Dupont (Wilmington, Del.).
Donor Cardiectomy. Male Sprague-Dawley rats (350-450 grams, Camm Research, Wayne, N.J.) were anesthetized, heparinized (1000 units of heparin given intravenously), and the donor heart removed in the following manner; a midline incision was performed, followed by rapid cardioplegic arrest with 5 ml of cold (4° C.), high potassium solution (NACl, 0.9%, and KCl, 40 mEq/L). The heart was maintained at 4° C. throughout the harvest procedure by the application of a cold saline soaked gauze over its surface. […] The aortic root was flushed with ≈15 ml of the cold preservation solution until the coronary arteries became visibly clear, and the heart remained in the cold storage solution for the indicated duration until the time of transplantation.
Heterotopic Transplant. The same breed/size of rat was used, and similarly anesthetized, but not given heparin. A midline abdominal incision was made, and the infrarenal aorta and vena cava were occluded with a side-biting vascular clamp and longitudinal incisions were made in each vessel. The donor heart was removed from the preservation solution and kept moist with saline-soaked gauze. […] Blood flow was restored to the graft (by removal of the clamp) exactly one hour after removal from the cold preservation solution. […] Ten minutes after removal of the cross-clamp, an electrocardiogram was taken (Grass Polygraph, Quincy, Mass.) and the heart was judged by the same blinded investigators throughout based on the presence/absence of regular contractions and a transplant score (0-5, worst-best, respectively) employing the following criteria: contraction (poor=0, average=1, vigorous=2), tissue turgor (hard=0, average=1, soft=2), and color (dusky=0, pink=1). […] The heterotopic cardiac transplant experiments performed in these studies were done by a single surgeon after establishment of this model and acquisition of surgical expertise, with control and experimental groups interspersed throughout the study period to prevent a time-dependent bias pertaining to surgical skills.
Statistics. Graft survival data and transplant scores were analyzed using the Kruskal-Wallis non-parametric analysis of variance (38). Comparisons of individual treatments were performed using the procedure described by Dunn (39). In addition, the effect of db-cAMP on the time-course of graft failure was quantified by multivariate logistic regression. Graft myeloperoxidase data, microsphere data, and cAMP/adenylate cyclase/phosphodiesterase data from experiments with cultured vascular smooth muscle cells were analyzed by t-tests when 2 treatments were performed or by analysis of variance when 3 or more treatments were performed. In the latter case, post-hoc comparison of treatment groups were tested using Tukey's procedure. Values are expressed as means ±SEM, with a p <0.05 considered statistically significant.

[5] = system: myocardial infarct / neutrophils; details: canine ischemia/reperfusion; cited from earlier work
[6] = system: nitric oxide production in heart; assay: direct measurement of coronary vascular and endocardial NO with porphyrinic microsensor; set-up: species or system rat; details: transplanted hearts
Description: Direct measurement of coronary vascular and endocardial nitric oxide synthesis were made with a porphyrinic microsensor^13 using differential pulse voltammetry or amperometry. Rat hearts were explanted and preserved as described above, and studied fresh (no preservation/transplantation) or after hypothermic preservation in lactated Ringer's (LR) solution, heterotopic transplantation, and 10 minutes of reperfusion. The coronary vasculature was flushed free of blood with LR followed by 4 ml of LR supplemented with L-Arg (2 mM) and bradykinin ([…], Sigma), which was recycled (1 ml/min) through the coronary vasculature by flushing down the cross-clamped aortic root. Aliquots of perfusate were immediately transferred to an anaerobic environment for measurements and compared to an aqueous nitric oxide reference. Differential pulse voltammograms were obtained using a sensor (working electrode), saturated calomel electrode reference, and platinum wire-auxiliary electrode, with a pulse amplitude of 40 mV. Endocardial NO was measured by implanting the sensor in the septal endocardium of a freshly explanted or preserved/transplanted heart, and after the baseline stabilization, […] bradykinin was applied and NO release continuously monitored by amperometry at constant potential of 0.63 V.

[7] = system: nitric oxide in lung tissue; assay: ex vivo pulmonary NO with porphyrinic microsensor; set-up: species or system rat
Description: Direct measurement of pulmonary NO production was made using a porphyrinic microsensor^30 and differential pulse voltammetry. Pieces of rat lung of equal weight (40±4 mg) were harvested following 6 hrs of hypothermic preservation in LR alone, or 6 hrs of preservation followed by orthotopic transplantation and 30 minutes of reperfusion as described above. These pieces were placed in a vial containing 2 mL of LR and equilibrated to 37° C. under ambient conditions. Differential pulse voltammograms (current [proportional to NO concentration] versus potential) with pulse amplitude of 40 mV were obtained with a sensor placed on the tissue surface. A saturated calomel reference electrode (SCE) and platinum wire (auxiliary electrode) were immersed in the LR solution. The sensor is a working electrode at which oxidation of NO occurs, resulting in an electric current (which flows between working and auxiliary electrodes). The reference electrode is used to monitor the potential of the working electrode. NO concentrations measured ex vivo have been normalized, and are reported as per 40 mg of tissue. An aqueous NO solution prepared as previously described^31 was used to calibrate the sensor.

[8] = system: nitric oxide at lung surface; assay: in vivo pulmonary NO with porphyrinic microsensor; set-up: species or system rat
Description: Measurements of nitric oxide concentrations in vivo were performed with a two electrode system using a porphyrinic sensor as a working electrode and a platinum wire as an auxiliary/reference electrode. The porphyrinic sensor with a flexible base was lowered onto the exposed surface of the lung using a micromanipulator. A small piezoelectric signal (mechanically generated current) was used to indicate that the sensor had made contact with the tissue surface. NO measurements were begun once the flexible sensor assumed an L-shaped configuration on the tissue surface and the platinum wire was connected to adjacent tissue. Continous amperometric (current-time) measurements were obtained at a constant potential of 0.68 V, during the period of warm ischemia (after the lung was sewn in place but not yet reperfused) and continously as the vascular cross-clamp was released and reperfusion initiated. Topical application of the calcium ionophore (A23187, 9.5 μM; Sigma) and superoxide dismutase (100 U/ml; Sigma) was applied as monitoring was continued.

[9] = lung preserved 6 h in LR, no reimplantation

Nc1nc2c(nc(Sc3ccc(Cl)cc3)n2[C@@H]2O[C@@H]3CO[P@@](O)(=S)O[C@H]3[C@H]2O)c(=O)[nH]1 [Rp-8-pCPT-cGMPS, R isomer of 8-(4-chlorophenylthio)guanosine-3'5'-cyclic monophosphorothioate]
effect on lung preservation (lung): block the beneficial effects of 8-Br-cGMP | Ki ([1]; cGMP-dependent protein kinase, personal communication): 0.5 µM | Ki ([2]; cAMP-dependent protein kinase, personal communication): 8.3 µM

hemoglobin
effect on NO / platelet inhibition by ECs (HUVECs / platelets): blocked

Nc1ncnc2c1nc(Br)n2[C@@H]1O[C@H](CO)[C@@H](O)[C@H]1O [8-bromoadenosine]
beneficial effect on cardiac preservation (heart [3]): no such beneficial effect | effect on cardiac preservation (heart [4]): ineffective

Nc1ncnc2c1ncn2[C@@H]1O[C@@H]2CO[P@@](O)(=S)O[C@H]2[C@H]1O [Rp -cAMPS, Rp isomer of adenosine 3'5'monophosphorothioate]
effect on cardiac preservation (heart [4]): prevented preservation enhancement induced by 8-bromo-cAMP; also recorded: abolished the salutory effect of 8-Br-cAMP on preservation | effect on cAMP-dependent protein kinase [2]: nonhydrolyzable competitive PKA antagonist

CCCC(=O)[O-].[Na+] [butyrate, sodium butyrate]
beneficial effect on cardiac preservation (heart [3]): no such beneficial effect | effect on cardiac preservation (heart [4]): consistently failed

COc1ccc(C2CNC(=O)C2)cc1OC1CCCC1 (stereo not shown) [rolipram]
effect on cardiac preservation (heart [4]): uniformly enhanced preservation | myocardial infarct size [5]: does not limit myocardial infarct size | neutrophil superoxide production in vitro / no-reflow [5]: significantly reduces neutrophil production of superoxide in vitro

Nc1ncnc2c1ncn2[C@@H]1O[C@@H]2CO[P@](O)(=S)O[C@H]2[C@H]1O [Sp -cAMPS, Sp isomer of adenosine 3'5'monophosphorothioate]
effect on cardiac preservation (heart [4]): enhanced preservation | effect on cGMP-dependent protein kinase [1]: antagonist of the cGMP-dependent protein kinase | effect on cAMP-dependent protein kinase [2]: PKA agonist

SOD: bovine erythrocyte superoxide dismutase
effect on NO / platelet inhibition by ECs (HUVECs / platelets): restore NO levels | effect on NO levels [6]: levels augmented | fold increase in detectable NO with SOD ([7]; lung preserved 6 h in LR and reimplanted): ~ 25 fold | NO concentration with SOD [7, 9]: 300 nM | increase in NO with SOD [7, 9]: 50% | increase in NO with SOD ([8]; normal lung): 10% | local NO concentration with SOD ([8]; normal lung): 720 ± 110 nM | NO level with SOD during reperfusion ([8]; preserved 6 h in LR, transplanted, from ~25 nM): ~ 40 nM

Cc1cc(C(C)(C)C)c(O)c(C(C)(C)C)c1 [BHT, butylated hydroxytoluene]
effect on NO / platelet inhibition by ECs (HUVECs / platelets): restore NO levels

Source: patent publication US5552267A, “Solution for prolonged organ preservation” (priority 1994, dated 1996)
